Experiment [1] concerns FdxT (DNA, hairpin, hexaethylene glycol linker between 10 and 11) TATAGCTATATATAGCTATA
In words: FRET melting. As to conditions: 10 mM K+, 90 mM Li+, 10 mM lithium cacodylate pH 7.2, 0.2 µM DNA.

In another experiment the test system is HeLa. In words: MTT antiproliferative assay, HeLa. The class given is cell-based, human. As to conditions: Homo sapiens, HeLa; MTT, 72 h, cervical cancer cells; read-out: IC50 Values (μM) ± SEM HeLa. As to the method: (§1) The growth-inhibitory effects of the compounds were determined by MTT (3-(4,5-dimethylthiazol-2-yl)-2,5-diphenyltetrazolium bromide) assay on selected cell lines, including HeLa and SiHa (cervical cancers), MDA-MB-231 and MCF-7 (breast cancers), and A2780 ovarian cancer cells. All cell lines were purchased from the European Collection of Cell Cultures (Salisbury, UK) except SiHa, which was obtained from the American Tissue Culture Collection (Manassas, VA, USA). The cells were kept in minimum essential medium supplemented with 10% fetal bovine serum, 1% non-essential amino acids, and 1% penicillin-streptomycin-amphotericin-B at 37 °C in a humidified atmosphere containing 5% CO2. Media and supplements were obtained from Lonza Group Ltd., (Basel, Switzerland). Cancer cells were seeded onto 96-well plates (5000 cells/well), after an overnight incubation the test compounds were added in six concentrations (0.1, 0.3, 1.0, 3.0, 10.0, 30.0 µM) and incubated for 72 h under cell-culture condition. After the incubation, 20 μL of 5 mg/mL MTT solution was added to each well and incubated for a further 4 h. The medium was removed, and the precipitated formazan crystals were dissolved in DMSO for 30 min under shaking at 37 °C. The absorbance was measured at 545 nm with a microplate reader. Untreated cells were included as controls. Calculations were performed by means of the GraphPad Prism 5.01 software (GraphPad Software Inc., San Diego, CA, USA). At least two independent determinations were performed with 5 parallel wells for each condition.
For orientation: Tetrazolium dyes change colour on reduction, which living cells bring about.

The test system of another experiment is SiHa. Description: MTT antiproliferative assay, SiHa. The class given is cell-based, human. As to conditions: Homo sapiens, SiHa; MTT, 72 h, cervical cancer cells; read-out: IC50 Values (μM) ± SEM SiHa. Here is the method: as §1
The next experiment has as its system MCF-7. Description: MTT antiproliferative assay, MCF-7. The class given is cell-based, human. As to conditions: MTT, 72 h, breast cancer cells, read-out: IC50 Values (μM) ± SEM MCF-7. As to the method: as §1
For another experiment, the system named is MDA-MB-231. Description: MTT antiproliferative assay, MDA-MB-231. In kind it is cell-based, human. The note with it: MTT, 72 h, breast cancer cells, read-out: IC50 Values (μM) ± SEM MDA-MB-231. As to the method: as §1
For a further experiment, the system named is A2780. Description: MTT antiproliferative assay, A2780. In kind it is cell-based, human. The note with it: Homo sapiens, A2780; MTT, 72 h, ovarian cancer cells; read-out: IC50 Values (μM) ± SEM A2780. Here is the method:
as §1

The test system of another experiment is K562. In words: MTS cell proliferation assay, K562. As to conditions: Homo sapiens, K562, 72 h; MTS, 3-day incubation, leukemia cells; read-out: IC50 Values (μM) ± SEM K562. The class given is cell-based, human. Here is the method: The human leukemic cell line K562 was grown in RPMI 1640 medium (Life Technology-Invitrogen by Thermo Fisher Scientific, Saint-Aubin, France) supplemented with 10% fetal calf serum (FCS), antibiotics (100 U/mL penicillin, 100 µg/mL streptomycin), and L-glutamine, (Eurobio, Les Ulis, France) at 37 °C, 5% CO2 in air. The MTS cell proliferation assay (Promega, Charbonnières-les-Bains, France) is a colorimetric assay system, which measures the transformation of a tetrazolium component (MTS) into formazan produced by the mitochondria of viable cells. Cells were washed twice in PBS (Phosphate Buffer Saline) and plated in quadruplicate into microtiter-plate wells in 100 μL culture media with or without our various compounds at increasing concentrations (0, 1, 5, 10, 20, and 50 μM) for 1, 2, and 3 days. After 3 h of incubation at 37 °C with 20 μL MTS/well, the plates were read using an ELISA microplate reader (Thermo, Electrocorporation, Waltham, MA, USA) at 490 nm. The amount of color produced was directly proportional to the number of viable cells. The results are expressed as the concentrations inhibiting cell growth by 50% after a 3-day incubation period. The 50% cytotoxic concentrations (CC50) were determined by linear regression analysis, expressed in μM ± SD (Microsoft Excel).

The subject of another experiment is Fc-MYCT. In words: FRET-melting, Fc-MYCT. In kind it is binding. The note with it: DNA 0.2 μM, K+ conditions, pH 7.2. As to the method:
(§2) FRET-melting experiments were conducted on a Stratagene MX3005P (Thermo Fisher Scientific, Illkirch-Graffenstaden, France) real-time PCR equipment in 96-well plates on the DNA sequences reported in Table 4. Experiments were performed in 10 mM lithium cacodylate buffer (pH 7.2) and either 10 mM KCl and 90 mM LiCl (FK-RAST, FBCL-2T, F21T, and FdxT) or 1 mM KCl and 99 mM LiCl (Fc-MYCT) concentrations, depending on the Tm of the G4s alone. The DNA concentration was 0.2 µM. […] Data are presented as an average of three independent measurements, each conducted in duplicate conditions (λexc = 492 nm, λem = 516 nm, T interval = 25–95 °C, ramp: 25 °C for 5 min, then 1 °C/min, measurements every 1 °C, 8× magnification of the fluorescence signal).

A further experiment deals with FK-RAST. In words: FRET-melting, FK-RAST. In kind it is binding. The note with it: DNA 0.2 μM, 10 mM KCl, 90 mM LiCl, pH 7.2. Here is the method: as §2
The next experiment has as its system FBCL-2T. In words: FRET-melting, FBCL-2T. The class given is binding. As to conditions: DNA 0.2 μM, 10 mM KCl, 90 mM LiCl, pH 7.2. Here is the method:
as §2

The test system of experiment [2] is human telomeric sequence F21T. Description: FRET-melting, F21T. The class given is binding. The note with it: DNA 0.2 μM, 10 mM KCl, 90 mM LiCl, pH 7.2. As to the method:
as §2

The test system of the next experiment is FdxT. In words: FRET-melting, duplex control FdxT. In kind it is binding. As to conditions: DNA 0.2 μM, 10 mM KCl, 90 mM LiCl, pH 7.2, hairpin duplex. Here is the method: as §2
Experiment [3] deals with FK-RAST (DNA, G4) AGGGCGGTGTGGGAAGAGGGA
Description: FRET melting. The note with it: 10 mM K+, 90 mM Li+; 10 mM lithium cacodylate pH 7.2; 0.2 µM DNA, 2 µM compound.

In experiment [4] the test system is F21T (DNA, G4) GGGTTAGGGTTAGGGTTAGGG
Description: FRET melting. The note with it: 10 mM K+, 90 mM Li+, 10 mM lithium cacodylate pH 7.2, 0.2 µM DNA.

Experiment [5] has as its system Fc-MYCT (DNA, G4) GGGTGGGTAGGGTGGGTAA
In words: FRET melting. The note with it: 1 mM K+, 99 mM Li+ (table footnote says 10 mM KCl, 90 mM LiCl); 10 mM lithium cacodylate pH 7.2; 0.2 µM DNA, 2 µM compound.

These results are taken from article PMC10819771 (Pharmaceuticals, 2023).

Like-named read-outs stand apart in the source and are kept apart here.

In experiment [1] (2 µM compound), `CN1CCN(CCCNCc2ccc(-c3cc(-c4ccc(CNCCCN5CCN(C)CC5)cc4)c4cc(-c5ccccc5)ccc4n3)cc2)CC1` displayed a ΔT1/2 of 0.1 ± 0.2 °C.
Consider `CN(C)CCCNCc1ccc(-c2nc(-c3ccc(CNCCCN(C)C)cc3)c3c(-c4ccccc4)cccc3n2)cc1` [Compound 12a, 2,4-bis{4-[(3-dimethylaminopropyl)aminomethyl]phenyl}-5-phenylquinazoline], for which the IC50 (in general, the midpoint of a concentration-inhibition curve) in the experiment on HeLa was 1.36 ± 0.04 µM; in the experiment on SiHa it was 0.62 ± 0.12 µM; in the experiment with MCF-7 (Homo sapiens, MCF7, 72 h) it was 1.12 to 1.24 µM; in the experiment with MCF-7 it was 1.12 ± 0.13 µM; in the experiment with MDA-MB-231 (Homo sapiens, MDA-MB-231, 72 h), 1.45 µM; in the experiment with MDA-MB-231, 1.45 ± 0.14 µM. Moreover, the IC50 came out at 2.6 ± 0.03 µM with A2780 and 14 ± 0.2 µM in the experiment on K562. The “ΔT1/2 (°C) Fc-MYCT” value in the experiment with Fc-MYCT (ligand 2 μM) amounted to 9.3 ± 0.3 °C. Also, the “ΔT1/2 (°C) FK-RAST” value in the experiment with FK-RAST (ligand 2 μM) turned out to be 10.6 ± 0.6 °C. Moreover, in the experiment on FBCL-2T (ligand 2 μM), the “ΔT1/2 (°C) FBCL-2T” value worked out at 7.4 ± 0.9 °C. In addition, the “ΔT1/2 (°C) F21T” value in experiment [2] (ligand 2 μM) is 6.8 ± 0.8 °C. Also, the “ΔT1/2 (°C) FdxT” value in the experiment with FdxT (ligand 2 μM) turned out to be 0.9 ± 0.2 °C. The values for the ΔT1/2 in [3] and in [4] (2 µM compound) were 10.6 ± 0.6 °C and 6.8 ± 0.8 °C, respectively.
In the case of `C[n+]1cc(NC(=O)c2ccc3ccc4ccc(C(=O)Nc5cc6ccccc6[n+](C)c5)nc4c3n2)cc2ccccc21` [PhenDC3, reference compound], the “ΔT1/2 (°C) Fc-MYCT” value in the experiment on Fc-MYCT (ligand 0.5 μM) worked out at 11.5 ± 0.3 °C. Further, the “ΔT1/2 (°C) FK-RAST” value in the experiment with FK-RAST (ligand 0.5 μM) came out at 16.9 ± 0.4 °C. In addition, in the experiment with FBCL-2T (ligand 0.5 μM), the “ΔT1/2 (°C) FBCL-2T” value was 13.1 ± 0.1 °C. Also, in experiment [2] (ligand 0.5 μM), the “ΔT1/2 (°C) F21T” value stood at 21.2 ± 0.5 °C. For the same molecule, the “ΔT1/2 (°C) FdxT” value in the experiment with FdxT (ligand 0.5 μM) was −0.6 ± 0.1 °C. For the same molecule, the ΔT1/2 in experiment [4] (0.5 µM compound) is 21.2 ± 0.5 °C; in [1] (0.5 µM compound), -0.6 ± 0.1 °C.
For `CN(C)CCCNCc1ccc(-c2cc(-c3ccc(CNCCCN(C)C)cc3)c3cccc(-c4ccccc4)c3n2)cc1` [Compound 13e, 2,4-bis{4-[(3-dimethylaminopropyl)aminomethyl]phenyl}-8-phenylquinoline], the IC50 stood at 1.28 ± 0.21 µM in the experiment with HeLa; 1.07 ± 0.45 µM in the experiment with SiHa; 1.12 ± 0.1 µM with MCF-7 (Homo sapiens, MCF7, 72 h); 1.21 ± 0.03 µM in the experiment with MDA-MB-231 (Homo sapiens, MDA-MB-231, 72 h); 1.5 ± 0.34 µM in the experiment with A2780; 7 ± 0.1 µM in the experiment with K562. The “ΔT1/2 (°C) Fc-MYCT” value in the experiment on Fc-MYCT (ligand 2 μM) turned out to be 5.5 ± 0.9 °C. Besides, in the experiment on FK-RAST (ligand 2 μM), the “ΔT1/2 (°C) FK-RAST” value was determined as 11.6 ± 1.4 °C. Further, in the experiment with FBCL-2T (ligand 2 μM), the “ΔT1/2 (°C) FBCL-2T” value was 8.3 ± 0.1 °C. The “ΔT1/2 (°C) F21T” value in experiment [2] (ligand 2 μM) was found to be 15.9 ± 0.4 °C. Further, the “ΔT1/2 (°C) FdxT” value in the experiment with FdxT (ligand 2 μM) was 0.2 ± 0.1 °C. The molecule also gave a ΔT1/2 in experiment [5] of 5.5 ± 0.9 °C.
